Reference: PubChem BioAssay (NCI)
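Step 1: Grow cells in 96-well plates. Step 2: Expose to compound for 48 hours at 5 concentrations. Step 3: Interpolate endpoints linearly; if unreached, use highest concentration. GI50 is the concentration that inhibits growth by half. TGI: total growth inhibition.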

Legend:
Assay in all cases: NCI anticancer screen, dose series, 48 h
[1] = test system: NCI-H226 lung
[2] = test system: SK-MEL-2 melanoma
[3] = test system: A498 renal
[4] = test system: UO-31 renal
[5] = test system: HL-60(TB) leukemia
[6] = test system: U251 CNS
[7] = test system: TK-10 renal
[8] = test system: HOP-62 NSCLC
[9] = test system: HCC-2998 colon
[10] = test system: COLO 205 colon
[11] = test system: MDA-MB-231 breast
[12] = test system: ACHN renal
[13] = test system: OVCAR-4 ovarian
[14] = test system: OVCAR-3 ovarian
[15] = test system: HCT-116 colon
[16] = test system: UACC-257 melanoma
[17] = test system: IGROV1 ovarian
[18] = test system: SK-OV-3 ovarian
[19] = test system: DU-145 prostate
[20] = test system: T-47D breast
[21] = test system: HCT-15 colon
[22] = test system: NCI-H522 lung
[23] = test system: K-562 leukemia
[24] = test system: HT29 colon
[25] = test system: NCI-H460 lung
[26] = test system: SF-295 CNS
[27] = test system: OVCAR-5 ovarian
[28] = test system: HS 578T breast
[29] = test system: A549 NSCLC
[30] = test system: MOLT-4 leukemia
[31] = test system: MALME-3M melanoma
[32] = test system: SN12C renal
[33] = test system: M14 melanoma
[34] = test system: 786-0 renal
[35] = test system: MCF7 breast
[36] = test system: SW-620 colon
[37] = test system: RPMI-8226 leukemia
[38] = test system: CAKI-1 renal
[39] = test system: SK-MEL-28 melanoma
[40] = test system: SNB-19 CNS
[41] = test system: KM12 colon
[42] = test system: RXF 393 renal
[43] = test system: LOX IMVI melanoma
[44] = test system: SR leukemia
[45] = test system: EKVX NSCLC
[46] = test system: UACC-62 melanoma
[47] = test system: MDA-MB-435
[48] = test system: SF-539 CNS
[49] = test system: NCI/ADR-RES ovarian
[50] = test system: CCRF-CEM leukemia
[51] = test system: HOP-92 NSCLC
[52] = test system: SF-268 CNS
[53] = test system: SNB-75 CNS
[54] = test system: PC-3 prostate

NC(=O)c1cc(-c2ccc3ncnc(N4CCc5cc(F)c(Cl)cc54)c3c2)cnc1N
GI50 [1]: 3040 nM
TGI [1]: 33100 nM
GI50 [2]: 1540 nM
TGI [2]: 4020 nM
GI50 [3]: 336 nM
TGI [3]: 2460 nM
GI50 [4]: 311 nM
TGI [4]: 10600 nM
GI50 [5]: 573 nM
TGI [5]: 6180 nM
GI50 [6]: 2440 nM
TGI [6]: 18800 nM
GI50 [7]: 519 nM
TGI [7]: 27900 nM
GI50 [8]: 1370 nM
TGI [8]: 7220 nM
GI50 [9]: 1680 nM
TGI [9]: 7090 nM
GI50 [10]: 2700 nM
TGI [10]: 21400 nM
GI50 [11]: 2020 nM
TGI [11]: 16200 nM
GI50 [12]: 801 nM
TGI [12]: 17000 nM
GI50 [13]: 1280 nM
TGI [13]: 2950 nM
GI50 [14]: 1670 nM
TGI [14]: 10000 nM
GI50 [15]: 1220 nM
TGI [15]: 2810 nM
GI50 [16]: 2830 nM
TGI [16]: > 100000 nM
GI50 [17]: 279 nM
TGI [17]: 1620 nM
GI50 [18]: 1090 nM
TGI [18]: 4180 nM
GI50 [19]: 1790 nM
TGI [19]: 27400 nM
GI50 [20]: 273 nM
TGI [20]: 2360 nM
GI50 [21]: 2020 nM
TGI [21]: > 100000 nM
GI50 [22]: 1550 nM
TGI [22]: 4720 nM
GI50 [23]: 3350 nM
TGI [23]: > 100000 nM
GI50 [24]: 1140 nM
TGI [24]: 9760 nM
GI50 [25]: 1300 nM
TGI [25]: 3960 nM
GI50 [26]: 1470 nM
TGI [26]: 4260 nM
GI50 [27]: 1820 nM
TGI [27]: 47900 nM
GI50 [28]: 839 nM
TGI [28]: 7650 nM
GI50 [29]: 1050 nM
TGI [29]: 13400 nM
GI50 [30]: 1250 nM
TGI [30]: 6230 nM
GI50 [31]: 1510 nM
TGI [31]: 15200 nM
GI50 [32]: 1030 nM
TGI [32]: 25000 nM
GI50 [33]: 2840 nM
TGI [33]: 41400 nM
GI50 [34]: 1190 nM
TGI [34]: 10400 nM
GI50 [35]: 317 nM
TGI [35]: 2150 nM
GI50 [36]: 2410 nM
TGI [36]: 19400 nM
GI50 [37]: 1390 nM
TGI [37]: 11300 nM
GI50 [38]: 529 nM
TGI [38]: 17000 nM
GI50 [39]: 2670 nM
TGI [39]: 28500 nM
GI50 [40]: 1820 nM
TGI [40]: > 100000 nM
GI50 [41]: 2330 nM
TGI [41]: 10900 nM
GI50 [42]: 656 nM
TGI [42]: 2590 nM
GI50 [43]: 1690 nM
TGI [43]: 12300 nM
GI50 [44]: 1870 nM
TGI [44]: 16200 nM
GI50 [45]: 806 nM
TGI [45]: 15300 nM
GI50 [46]: 1620 nM
TGI [46]: 18300 nM
GI50 [47]: 2300 nM
TGI [47]: > 100000 nM
GI50 [48]: 1490 nM
TGI [48]: 3560 nM
GI50 [49]: 3220 nM
TGI [49]: > 100000 nM
GI50 [50]: 2950 nM
TGI [50]: 34800 nM
GI50 [51]: 231 nM
TGI [51]: 2630 nM
GI50 [52]: 1880 nM
TGI [52]: 49800 nM
GI50 [53]: 524 nM
TGI [53]: 5800 nM
GI50 [54]: 976 nM
TGI [54]: 5270 nM
